Experimental data as given in ChEMBL document CHEMBL1147151, “In vitro optimization of non-small cell lung cancer activity with troxacitabine, L-1,3-dioxolane-cytidine, prodrugs” (J Med Chem, 2007).

Key:
SW1573 = assay: Cytotoxicity against SW1573 cells after 72 hrs by SRB assay; type: functional, cell-based; conditions: Homo sapiens, SW1573, 72 h
A549 = assay: Cytotoxicity against A549 cells after 72 hrs by SRB assay; type: functional, cell-based; conditions: Homo sapiens, A549, 72 h

`CCCCC(=O)Nc1ccn([C@@H]2CO[C@H](CO)O2)c(=O)n1` showed an IC50 (SW1573) of 9.13 µM and an IC50 (A549) of 5.23 µM.
In the case of `O=C(Nc1ccn([C@@H]2CO[C@H](CO)O2)c(=O)n1)c1ccc(F)cc1`, the IC50 (SW1573) is reported as 15.3 µM and the IC50 (A549) is reported as 8.67 µM.
Molecule `O=C(Nc1ccn([C@@H]2CO[C@H](CO)O2)c(=O)n1)C1CC1` has an IC50 (SW1573) of 22 µM and an IC50 (A549) of 18.7 µM.
For `CCCCCCCCCCCCCCCC(=O)Nc1ccn([C@@H]2CO[C@H](CO)O2)c(=O)n1`, the IC50 (SW1573) was 0.02 µM and the IC50 (A549) was 0.004 µM.
Work on `O=C(Nc1ccn([C@@H]2CO[C@H](CO)O2)c(=O)n1)c1ccc(Cl)cc1` yielded an IC50 (SW1573) of 2.77 µM and an IC50 (A549) of 0.41 µM.
With `Nc1ccn([C@@H]2CO[C@H](CO)O2)c(=O)n1` [TROXACITABINE] the IC50 (SW1573) was 2.3 µM and the IC50 (A549) was 0.68 µM.
Work on `CCCCCCCCCC(=O)Nc1ccn([C@@H]2CO[C@H](CO)O2)c(=O)n1` yielded an IC50 (SW1573) of 0.04 µM and an IC50 (A549) of 0.024 µM.
`CCCCCCCCCCCCCCCCCCCCCC(=O)Nc1ccn([C@@H]2CO[C@H](CO)O2)c(=O)n1` gave an IC50 (SW1573) of 0.9 µM and an IC50 (A549) of 0.5 µM.
In the case of `CCCCCCCCCCCCCCCCCCCC(=O)Nc1ccn([C@@H]2CO[C@H](CO)O2)c(=O)n1`, the IC50 (SW1573) is reported as 0.15 µM and the IC50 (A549) is reported as 0.03 µM.
With `Nc1ccn([C@@H]2O[C@H](CO)[C@@H](O)C2(F)F)c(=O)n1` [GEMCITABINE] the IC50 (SW1573) was 8.3 µM and the IC50 (A549) was 13.1 µM.
`CCCCCCC(=O)Nc1ccn([C@@H]2CO[C@H](CO)O2)c(=O)n1` gave an IC50 (SW1573) of 2.4 µM and an IC50 (A549) of 1.04 µM.
`O=C(Nc1ccn([C@@H]2CO[C@H](CO)O2)c(=O)n1)c1ccc(Cl)cc1Cl` was tested, and the IC50 (SW1573) was 14.3 µM and the IC50 (A549) was 9.83 µM.
`O=C(Nc1ccn([C@@H]2CO[C@H](CO)O2)c(=O)n1)C1CCCC1` gave an IC50 (SW1573) of 8.8 µM and an IC50 (A549) of 2.97 µM.
`CCCCCCCCC(=O)Nc1ccn([C@@H]2CO[C@H](CO)O2)c(=O)n1` gave an IC50 (SW1573) of 0.276 µM and an IC50 (A549) of 0.046 µM.
For `CC(=O)Nc1ccn([C@@H]2CO[C@H](CO)O2)c(=O)n1`, the IC50 (SW1573) was 10.7 µM and the IC50 (A549) was 6.87 µM.
In the case of `O=C(Nc1ccn([C@@H]2CO[C@H](CO)O2)c(=O)n1)c1ccc(Br)cc1`, the IC50 (SW1573) is reported as 8.87 µM and the IC50 (A549) is reported as 4.53 µM.
With `O=C(Nc1ccn([C@@H]2CO[C@H](CO)O2)c(=O)n1)C1CCCCC1` the IC50 (SW1573) was 14 µM and the IC50 (A549) was 7.37 µM.
`O=C(Nc1ccn([C@@H]2CO[C@H](CO)O2)c(=O)n1)c1ccccc1` gave an IC50 (SW1573) of 13.7 µM and an IC50 (A549) of 8.53 µM.
Molecule `COc1ccc(C(=O)Nc2ccn([C@@H]3CO[C@H](CO)O3)c(=O)n2)cc1` has an IC50 (SW1573) of 10 µM and an IC50 (A549) of 3.5 µM.
`CCCCCCCCCCCCCCCCCC(=O)Nc1ccn([C@@H]2CO[C@H](CO)O2)c(=O)n1` gave an IC50 (SW1573) of 0.125 µM and an IC50 (A549) of 0.025 µM.
With `CCCC(=O)Nc1ccn([C@@H]2CO[C@H](CO)O2)c(=O)n1` the IC50 (SW1573) was 8.07 µM and the IC50 (A549) was 6.6 µM.
`CCCCCCCCCCCC(=O)Nc1ccn([C@@H]2CO[C@H](CO)O2)c(=O)n1` gave an IC50 (SW1573) of 0.03 µM and an IC50 (A549) of 0.015 µM.
